Calls of active or inactive are those of the source. The rule behind the calls is not given here.
Assays:
[1] = molecular target: T1, Indoleamine 2,3-dioxygenase 1 (Homo sapiens, UniProt P14902); assay: Inhibition of recombinant human IDO1 assessed as reduction in conversion of L-tryptophan to kynurenine by methylene blue dye based spectrometric method
Target sequence in this assay (P14902 whole entry): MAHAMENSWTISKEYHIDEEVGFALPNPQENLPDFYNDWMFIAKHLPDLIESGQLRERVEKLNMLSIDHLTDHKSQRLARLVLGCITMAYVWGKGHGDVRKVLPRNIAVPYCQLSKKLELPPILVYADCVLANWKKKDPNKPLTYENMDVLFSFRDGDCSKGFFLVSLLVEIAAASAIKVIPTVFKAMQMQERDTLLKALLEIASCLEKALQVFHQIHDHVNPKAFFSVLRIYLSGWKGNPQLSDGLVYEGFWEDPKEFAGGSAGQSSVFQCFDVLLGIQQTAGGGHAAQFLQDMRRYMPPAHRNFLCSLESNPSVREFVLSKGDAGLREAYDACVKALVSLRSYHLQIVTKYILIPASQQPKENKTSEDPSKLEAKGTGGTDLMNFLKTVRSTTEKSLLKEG

[2] = molecular target: T1, Indoleamine 2,3-dioxygenase 1; assay: Uncompetitive inhibition of recombinant human IDO1 assessed as reduction in conversion of L-tryptophan to N-formylkynurenine at 200 to 1500 nM by methylene blue dye based spectrometric method
Target sequence in this assay (P14902 whole entry, looked up): as the sequence (P14902 whole entry) above

Homo sapiens = organism: Homo sapiens; assay: Selectivity ratio of IC50 for human TDO to IC50 for human IDO1
[3] = molecular target: Tryptophan 2,3-dioxygenase (Homo sapiens, UniProt P48775); assay: Inhibition of recombinant human TDO assessed as reduction in conversion of L-tryptophan to kynurenine by methylene blue dye based spectrometric method
Chain of Tryptophan 2,3-dioxygenase (P48775 whole entry): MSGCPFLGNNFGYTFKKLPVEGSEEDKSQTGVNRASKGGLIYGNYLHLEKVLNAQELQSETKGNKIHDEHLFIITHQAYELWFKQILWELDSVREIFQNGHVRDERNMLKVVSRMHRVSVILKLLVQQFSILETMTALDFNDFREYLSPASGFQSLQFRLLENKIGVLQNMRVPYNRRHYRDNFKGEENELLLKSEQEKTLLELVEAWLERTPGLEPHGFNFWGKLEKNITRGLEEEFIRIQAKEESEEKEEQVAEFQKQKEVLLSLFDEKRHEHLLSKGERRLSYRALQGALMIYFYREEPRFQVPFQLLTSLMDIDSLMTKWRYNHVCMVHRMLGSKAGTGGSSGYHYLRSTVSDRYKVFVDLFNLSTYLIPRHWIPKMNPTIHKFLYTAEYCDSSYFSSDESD

HeLa = assay: Cytotoxicity against human HeLa cells assessed as reduction in cell viability at 2 times IDO1 inhibitory IC50 after 48 hrs by MTT assay; format: functional, cell-based
MDA-MB-231 [4] = assay: Cytotoxicity against human MDA-MB-231 cells assessed as induction of morphological changes at 2 times IDO1 inhibitory IC50 after 48 hrs by cytell imaging analysis; format: functional, cell-based
J774.A1 = assay: Cytotoxicity against mouse J774A.1 cells assessed as reduction in cell viability at 2 times IDO1 inhibitory IC50 after 48 hrs by MTT assay; format: cell-based; conditions: j774.a1, 48 h
[5] = molecular target: T1, Indoleamine 2,3-dioxygenase 1; assay: Binding affinity to human ferric-IDO1 assessed as blue shift in soret peak at 50 uM by UV-Visible spectrophotometric method
Target sequence in this assay (P14902 whole entry, looked up): as the sequence (P14902 whole entry) above

A549 = assay: Cytotoxicity against human A549 cells assessed as reduction in cell viability at 2 times IDO1 inhibitory IC50 after 48 hrs by MTT assay; format: functional, cell-based
MDA-MB-231 [6] = assay: Cytotoxicity against human MDA-MB-231 cells assessed as reduction in cell viability at 2 times IDO1 inhibitory IC50 after 48 hrs by MTT assay; format: functional, cell-based
[7] = molecular target: T1, Indoleamine 2,3-dioxygenase 1; assay: Binding affinity to human ferrous-IDO1 assessed as blue shift in soret peak at 50 uM by UV-Visible spectrophotometric method
Target sequence in this assay (P14902 whole entry, looked up): as the sequence (P14902 whole entry) above

[8] = molecular target: T1, Indoleamine 2,3-dioxygenase 1; assay: Inhibition of IFNgamma-stimulated IDO1 in human MDA-MB-231 cells preincubated for 4 hrs followed by tryptophan addition measured after 5 hrs by methylene blue dye based spectrophotometric method; format: cell-based
Target sequence in this assay (P14902 whole entry): as above

[9] = molecular target: T1, Indoleamine 2,3-dioxygenase 1; assay: Competitive inhibition of recombinant human IDO1 assessed as reduction in conversion of L-tryptophan to N-formylkynurenine at 200 to 1500 nM by methylene blue dye based spectrometric method
Target sequence in this assay (P14902 whole entry, looked up): as the sequence (P14902 whole entry) above

CC(=O)CC1(O)C(=O)Nc2ccc(Cl)cc21 (stereo unspecified)
IC50 [1]: 1.97 µM

CC(=O)CC(=O)CC1(O)C(=O)Nc2ccc(Cl)cc21 (stereo unspecified)
inhibition [2]: Active | IC50 [1]: 0.89 µM

NCCC1C(=O)Nc2ccccc21 (stereo unspecified)
IC50 [1]: 3.97 µM

N[C@@H](CC1C(=O)Nc2ccccc21)C(=O)O (stereo partly specified)
IC50 [1]: 3.39 µM | Ratio IC50 (Homo sapiens): 18 | IC50 [3]: 60.2 µM

O=C(N[C@@H](CC1C(=O)Nc2ccccc21)C(=O)O)c1ccccc1 (mixture of isomers)
IC50 [1]: 1.58 µM

O=C1Nc2ccccc2/C1=N/Nc1ccccc1C(F)(F)F
IC50 [1]: 1.58 µM | Ratio IC50 (Homo sapiens): 24 | IC50 [3]: 38.3 µM

O=C(N[C@@H](CC1C(=O)Nc2ccccc21)C(=O)O)OCc1ccccc1 (stereo partly specified)
Activity (HeLa): inactive | Activity (MDA-MB-231 [4]): inactive | Activity (J774.A1): Non-Toxic | Activity [5]: Active | IC50 [1]: 1.28 µM | Activity (A549): inactive | Activity (MDA-MB-231 [6]): inactive | inhibition [7]: Active | EC50 [8]: 1.26 µM | Ratio IC50 (Homo sapiens): 21 | IC50 [3]: 27.2 µM | inhibition [9]: Active

CC(C)(C)OC(=O)N[C@@H](CC1C(=O)Nc2ccccc21)C(=O)O (stereo partly specified)
IC50 [1]: 1.95 µM

NC(=O)[C@@H](N)CC1C(=O)Nc2ccccc21 (stereo partly specified)
IC50 [1]: 8.33 µM

CC(=O)/C=C1\C(=O)Nc2ccccc21
IC50 [1]: 1.69 µM

O=C1Nc2ccccc2/C1=N/c1ccccc1Br
IC50 [1]: 1.24 µM | Ratio IC50 (Homo sapiens): 37 | IC50 [3]: 46.2 µM | inhibition [9]: Active

O=C1Nc2ccccc2/C1=N/Nc1cccc(Cl)c1
Ratio IC50 (Homo sapiens): 31

Cn1cc(C[C@H](N)C(=O)O)c2ccccc21
Activity (MDA-MB-231 [4]): inactive | Activity (MDA-MB-231 [6]): inactive

O=C1Nc2ccccc2/C1=N/Nc1ccc(Cl)cc1
inhibition [2]: Active | Activity (HeLa): inactive | Activity (MDA-MB-231 [4]): inactive | Activity (J774.A1): Non-Toxic | IC50 [1]: 0.63 µM | Activity (A549): inactive | Activity (MDA-MB-231 [6]): inactive | EC50 [8]: 0.42 µM | Ratio IC50 (Homo sapiens): 85 | IC50 [3]: 53.4 µM

O=C1N=c2ccccc2=C1NNc1cccc(Cl)c1
IC50 [1]: 1.51 µM | IC50 [3]: 46.8 µM

N[C@@H](CC1C(=O)Nc2ccccc21)C(=O)OCc1ccccc1 (stereo partly specified)
IC50 [1]: 13.6 µM

CC(=O)N[C@@H](CC1C(=O)Nc2ccccc21)C(=O)O (mixture of isomers)
Activity (HeLa): inactive | Activity (MDA-MB-231 [4]): inactive | Activity (J774.A1): Non-Toxic | Activity [5]: Active | IC50 [1]: 0.62 µM | Activity (A549): inactive | Activity (MDA-MB-231 [6]): inactive | inhibition [7]: Active | EC50 [8]: 0.48 µM | Ratio IC50 (Homo sapiens): 135 | IC50 [3]: 83.5 µM | inhibition [9]: Active

Cc1ccc(S(=O)(=O)N/N=C2\C(=O)Nc3ccccc32)cc1
IC50 [1]: 1.78 µM | Ratio IC50 (Homo sapiens): 30 | IC50 [3]: 52.9 µM

CC(=O)CC(=O)/C=C1\C(=O)Nc2ccc(Cl)cc21
Activity (HeLa): inactive | Activity (MDA-MB-231 [4]): inactive | Activity (J774.A1): Non-Toxic | Activity [5]: Active | IC50 [1]: 0.19 µM | Activity (A549): inactive | Activity (MDA-MB-231 [6]): inactive | inhibition [7]: Active | EC50 [8]: 0.33 µM | Ratio IC50 (Homo sapiens): 210 | IC50 [3]: 39.9 µM | inhibition [9]: Active

O=C(NCCC1C(=O)Nc2ccccc21)OCc1ccccc1 (stereo unspecified)
IC50 [1]: 2.31 µM | Ratio IC50 (Homo sapiens): 25 | IC50 [3]: 58.3 µM

O=C1Nc2ccccc2/C1=N\c1ccc(Cl)cc1
IC50 [1]: 2.56 µM

CC(=O)/C=C1\C(=O)Nc2ccc(Cl)cc21
Activity (HeLa): inactive | Activity (MDA-MB-231 [4]): inactive | Activity (J774.A1): Non-Toxic | IC50 [1]: 0.36 µM | Activity (A549): inactive | Activity (MDA-MB-231 [6]): inactive | EC50 [8]: 0.46 µM | Ratio IC50 (Homo sapiens): 152 | IC50 [3]: 54.7 µM | inhibition [9]: Active

O=C1Nc2ccccc2/C1=N/Nc1cccc([N+](=O)[O-])c1
IC50 [1]: 3.74 µM

O=C(N[C@@H](CC1C(=O)Nc2ccccc21)C(=O)OCc1ccccc1)OCc1ccccc1 (stereo partly specified)
IC50 [1]: 2.25 µM

O=C1CCCC(=O)C1C1(O)C(=O)Nc2ccccc21 (stereo unspecified)
IC50 [1]: 4.73 µM

O=C1Nc2ccccc2C1=NNc1ccccc1
IC50 [1]: 1.95 µM

CCOC(=O)C(C(=O)OCC)=C1C(=O)Nc2ccccc21
IC50 [1]: 0.93 µM | Ratio IC50 (Homo sapiens): 76 | IC50 [3]: 71 µM

CC(=O)CC(=O)CC1(O)C(=O)Nc2ccccc21 (stereo unspecified)
Activity (HeLa): inactive | Activity (MDA-MB-231 [4]): inactive | Activity (J774.A1): Non-Toxic | Activity [5]: 9 nm | IC50 [1]: 0.45 µM | Activity (A549): inactive | Activity (MDA-MB-231 [6]): inactive | inhibition [7]: Active | EC50 [8]: 0.49 µM | Ratio IC50 (Homo sapiens): 124 | IC50 [3]: 56.1 µM | inhibition [9]: Active
